Data taken from publication PMC3038857, “Using Nuclear Receptor Activity to Stratify Hepatocarcinogens” (PLoS ONE, 2011).
Read-outs that look alike come from different tables or passages of the source.

Tests used:
[1] = test system: Mouse Liver; conditions: ref ToxRefDB, cited from earlier work
[2] = test system: Rat Liver; conditions: ref ToxRefDB, cited from earlier work
[3] = test system: Mouse Liver; conditions: ref ToxRefDB, cited from earlier work; remark: listed apart in the source
[4] = test system: Rat Liver; conditions: ref ToxRefDB, cited from earlier work; remark: listed apart in the source
[5] = test system: Rat Liver; conditions: ref ToxRefDB, cited from earlier work; remark: listed apart in the source
[6] = test system: Mouse Liver; conditions: ref ToxRefDB, cited from earlier work; remark: listed apart in the source
[7] = biological target: T1, PXR (NR1I2) (Homo sapiens, UniProt O75469); experiment: ATG_PXRE_CIS: Factorial reporter gene assay (HepG2); type: cell-based; set-up: endogenous in cells; host or cells: HepG2; conditions: HepG2
T1 sequence (O75469 1-434): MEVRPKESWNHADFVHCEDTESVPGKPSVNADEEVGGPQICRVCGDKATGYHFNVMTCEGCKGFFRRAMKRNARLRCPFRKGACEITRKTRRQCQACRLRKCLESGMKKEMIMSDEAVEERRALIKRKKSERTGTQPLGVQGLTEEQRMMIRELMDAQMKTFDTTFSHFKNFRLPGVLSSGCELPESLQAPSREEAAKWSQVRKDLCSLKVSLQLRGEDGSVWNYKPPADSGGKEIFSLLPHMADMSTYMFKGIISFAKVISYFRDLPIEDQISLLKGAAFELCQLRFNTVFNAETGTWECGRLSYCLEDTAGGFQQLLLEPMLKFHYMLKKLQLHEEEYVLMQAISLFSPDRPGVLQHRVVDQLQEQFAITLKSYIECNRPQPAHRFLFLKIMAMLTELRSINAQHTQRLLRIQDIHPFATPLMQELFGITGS
Method in brief: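 Compounds at seven concentrations (top at MTC, threefold serial) were applied to transfected HepG2 hepatoma cells, with PXRE scored by cis-element reporters and ERRg, FXR and PPARg scored by trans one-hybrid nuclear receptor reporters.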

[8] = biological target: T2, PPARG (peroxisome proliferator-activated receptor gamma) (Homo sapiens, UniProt P37231); experiment: ATG_PPARg_TRANS: Factorial reporter gene assay (HepG2); type: cell-based; conditions: HepG2
T2 construct: expressed in transfected cells; host or cells: HepG2
T2 sequence (P37231 1-505): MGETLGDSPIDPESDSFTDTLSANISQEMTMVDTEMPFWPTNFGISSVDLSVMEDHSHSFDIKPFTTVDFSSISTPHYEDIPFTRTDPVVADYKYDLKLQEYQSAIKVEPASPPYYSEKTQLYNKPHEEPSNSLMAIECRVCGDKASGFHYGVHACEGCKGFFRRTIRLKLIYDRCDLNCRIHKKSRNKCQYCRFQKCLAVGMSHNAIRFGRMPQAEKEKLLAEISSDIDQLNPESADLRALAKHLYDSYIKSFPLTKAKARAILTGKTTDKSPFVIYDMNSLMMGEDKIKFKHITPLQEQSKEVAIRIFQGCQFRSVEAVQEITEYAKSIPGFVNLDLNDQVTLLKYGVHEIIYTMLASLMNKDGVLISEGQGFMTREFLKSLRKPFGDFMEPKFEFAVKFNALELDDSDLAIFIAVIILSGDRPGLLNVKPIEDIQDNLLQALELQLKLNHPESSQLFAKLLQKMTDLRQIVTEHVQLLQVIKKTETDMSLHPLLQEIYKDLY
Procedure: (§1) A multiple reporter transcription unit (MRTU) library consisting of 48 transcription factor binding sites was transfected into the HepG2 human liver hepatoma cell line. In addition to the cis-acting reporter genes (CIS), a modification of the approach was used to generate a trans-system (TRANS) with a mammalian one-hybrid assay consisting of an additional 25 MRTU library reporting the activity of nuclear receptor super-family members. […] These assays were performed by Attagene Inc. (Morrisville NC) under contract to EPA.
(§2) In addition to the cis-acting reporter genes (CIS), a modification of the approach was used to generate a trans-system (TRANS) with a mammalian one-hybrid assay consisting of an additional 25 MRTU library reporting the activity of nuclear receptor super-family members. […] Chemicals were then tested in the CIS and TRANS assays at seven concentrations starting at the MTC and followed by three-fold serial dilutions. These assays were performed by Attagene Inc. (Morrisville NC) under contract to EPA. Detailed description of the methods, data and analysis methods for this dataset will be presented in a separate publication.

[9] = test system: CYP2B6; experiment: CLZD_CYP2B6: Change in expression of CYP2B6 (primary human hepatocytes); type: cell-based; conditions: 24 hr
Method in brief: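 Cultured primary human hepatocytes treated with chemicals for 6, 24 or 48 hr across five concentrations spanning 0.004-40 µM, then transcript level measured by quantitative nuclease protection in a multiplexed format.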

[10] = biological target: T1, PXR (NR1I2); experiment: ATG_PXR_TRANS: Factorial reporter gene assay (HepG2); type: cell-based; set-up: endogenous in cells; host or cells: HepG2; conditions: HepG2
Procedure: as §1, §2

[11] = test system: CYP1A2; experiment: CLZD_CYP1A2: Change in expression of CYP1A2 (primary human hepatocytes); type: cell-based; conditions: 24 hr
Procedure: (§3) This is a collection of multiplexed gene expression assays focused on Phase I and II xenobiotic metabolizing enzymes and transporters. Human primary cell cultures were treated with chemicals at 5 concentrations (0.004-40 [drawing 42] M) for 6, 24 and 48 hr. Concentration- and time-response profiles of chemicals were measured by the expression of key nuclear receptor target genes, activities of CYP1A enzymes (EROD), and cell morphology. Fourteen gene targets were monitored by quantitative nuclease protection assay including: six representative cytochrome P-450 genes, four hepatic transporters, three Phase II conjugating enzymes, and one endogenous metabolism gene involved in cholesterol synthesis. The target genes associated with nuclear receptor pathways are as follows: [drawing 43] and [drawing 44] with [drawing 45]; [drawing 46] , [drawing 47] , [drawing 48] , [drawing 49] , [drawing 50] and [drawing 51] with [drawing 52]; [drawing 53] , [drawing 54] , [drawing 55] and [drawing 56] with [drawing 57]; [drawing 58] with [drawing 59]; and [drawing 60] with [drawing 61] . Assays were run in primary human hepatocyte cultures by CellzDirect Invitrogen Inc. (Durham, NC), in collaboration with EPA.
(§4) Multiplexed Gene Expression in Human Primary Hepatocytes: This is a collection of multiplexed gene expression assays focused on Phase I and II metabolic enzymes and transporters. […] Fourteen gene targets were monitored by quantitative nuclease protection assay: six representative cytochrome P450 genes, four hepatic transporters, three Phase II conjugating enzymes, and one endogenous metabolism gene involved in cholesterol synthesis. Cells were exposed at 5 concentrations (0.004-40 µM) for 6, 24 or 48 hr. Gene targets are sentinels for five nuclear receptor signaling pathways: AhR, CAR, PXR, FXR, and PPARα. All gene are associated with nuclear receptor pathways: CYP1A1 and CYP1A2 with AHR; ABCB1, ABCG2, CYP2B6, CYP2C9, CYP2C19 and UGT1A1 with CAR; CYP3A4, GSTA2, SLCO1B1 and SULT2A1 with PXR; HMGCS2 with PPARA; and ABCB11 with FXR. […] Detailed description of the methods, data and analysis methods for this dataset will be presented in a separate publication.

[12] = test system: CYP3A4; experiment: CLZD_CYP3A4: Change in expression of CYP3A4 (primary human hepatocytes); type: cell-based; conditions: 24 hr
Procedure: as §3, §4

[13] = test system: CYP1A1; experiment: CLZD_CYP1A1: Change in expression of CYP1A1 (primary human hepatocytes); type: cell-based; conditions: 24 hr
Procedure: as §3, §4

[14] = mouse chronic study, liver, coded 6 / Inf, code not explained in table
[15] = rat chronic study, liver, coded 6 / 0, code not explained in table

In the case of COC(=O)c1cccc(C)c1S(=O)(=O)NC(=O)Nc1nc(OCC(F)(F)F)nc(N(C)C)n1 [chemical 317], the CHR_Mouse_Liver_2_PreneoplasticLesion [1, 14] is given as 6, the CHR_Rat_Liver_1_AnyLesion [2, 15] is given as 0 and the CHR_Mouse_Liver_3_NeoplasticLesion [3, 14] is given as 6. The CHR_Rat_Liver_3_NeoplasticLesion [4, 15] was 0, the CHR_Rat_Liver_2_PreneoplasticLesion [5, 15] was 0 and the CHR_Mouse_Liver_1_AnyLesion [6, 14] was 6.

For C=CC1(C)OC(=O)N(c2cc(Cl)cc(Cl)c2)C1=O (centres unmarked) [chemical 319], the CHR_Mouse_Liver_2_PreneoplasticLesion [1, 14] is listed as 6, the CHR_Rat_Liver_1_AnyLesion [2, 15] is listed as 6 and the CHR_Mouse_Liver_3_NeoplasticLesion [3, 14] is listed as 6. The CHR_Rat_Liver_3_NeoplasticLesion [4, 15] was 6, the CHR_Rat_Liver_2_PreneoplasticLesion [5, 15] was 6 and the CHR_Mouse_Liver_1_AnyLesion [6, 14] was 6.

In the case of CCCCOCCOCCOCc1cc2c(cc1CCC)OCO2 [r246], the CHR_Mouse_Liver_2_PreneoplasticLesion ([1]; mouse, chronic study) is given as 6, the ATG_PXRE_CIS [7] is given as 5.42 and the ATG_PPARg_TRANS [8] is given as 4.602. It also gave a CLZD_CYP2B6_24 [9] of 5.592, an ATG_PXR_TRANS [10] of 4.824 and a CLZD_CYP1A2_24 [11] of 5.617. For the same molecule, the CHR_Rat_Liver_1_AnyLesion ([2]; rat, chronic study) was 6, the CLZD_CYP3A4_24 [12] was 5.527 and the CHR_Mouse_Liver_3_NeoplasticLesion ([3]; mouse, chronic study) was 6. For the same molecule, the CHR_Rat_Liver_3_NeoplasticLesion ([4]; rat, chronic study) was 0, the CHR_Rat_Liver_2_PreneoplasticLesion ([5]; rat, chronic study) was 6 and the CHR_Mouse_Liver_1_AnyLesion ([6]; mouse, chronic study) was 6.

For COC(=O)c1ccccc1S(=O)(=O)NC(=O)Nc1nc(OC(F)F)cc(OC(F)F)n1 [r250], the CHR_Mouse_Liver_2_PreneoplasticLesion ([1]; mouse, chronic study) is given as 6, the ATG_PXRE_CIS [7] is given as 4.469 and the CLZD_CYP2B6_24 [9] is given as 5.187. For the same molecule, the CHR_Rat_Liver_1_AnyLesion ([2]; rat, chronic study) was 0, the CHR_Mouse_Liver_3_NeoplasticLesion ([3]; mouse, chronic study) was 6 and the CHR_Rat_Liver_3_NeoplasticLesion ([4]; rat, chronic study) was 0. The CHR_Rat_Liver_2_PreneoplasticLesion ([5]; rat, chronic study) was 0 and the CHR_Mouse_Liver_1_AnyLesion ([6]; mouse, chronic study) was 6.

In the case of CNC(=O)Oc1ccccc1OC(C)C [r263], the CHR_Mouse_Liver_2_PreneoplasticLesion ([1]; mouse, chronic study) is given as 6, the CLZD_CYP2B6_24 [9] is given as 5.434 and the CHR_Rat_Liver_1_AnyLesion ([2]; rat, chronic study) is given as 0. The CLZD_CYP3A4_24 [12] was 5.055, the CHR_Mouse_Liver_3_NeoplasticLesion ([3]; mouse, chronic study) was 6 and the CHR_Rat_Liver_3_NeoplasticLesion ([4]; rat, chronic study) was 0. For the same molecule, the CHR_Rat_Liver_2_PreneoplasticLesion ([5]; rat, chronic study) was 0 and the CHR_Mouse_Liver_1_AnyLesion ([6]; mouse, chronic study) was 6.

For CC1=NNC(=O)N(/N=C/c2cccnc2)C1 [r269], the CHR_Mouse_Liver_2_PreneoplasticLesion ([1]; chronic study, mouse liver) is given as 6, the CHR_Rat_Liver_1_AnyLesion ([2]; chronic study, rat liver) is given as 6 and the CHR_Mouse_Liver_3_NeoplasticLesion ([3]; chronic study, mouse liver) is given as 6. The CHR_Rat_Liver_3_NeoplasticLesion ([4]; chronic study, rat liver) was 6, the CHR_Rat_Liver_2_PreneoplasticLesion ([5]; chronic study, rat liver) was 6 and the CHR_Mouse_Liver_1_AnyLesion ([6]; chronic study, mouse liver) was 6.

In the case of Clc1cccc(C(Cl)(Cl)Cl)n1 [row 221], the CHR_Mouse_Liver_2_PreneoplasticLesion ([1]; chronic mouse study, liver) is given as 6, the ATG_PXRE_CIS [7] is given as 4.292 and the CLZD_CYP2B6_24 [9] is given as 5.088. The CHR_Rat_Liver_1_AnyLesion ([2]; chronic rat study, liver) was 6, the CHR_Mouse_Liver_3_NeoplasticLesion ([3]; chronic mouse study, liver) was 6 and the CHR_Rat_Liver_3_NeoplasticLesion ([4]; chronic rat study, liver) was 0. For the same molecule, the CHR_Rat_Liver_2_PreneoplasticLesion ([5]; chronic rat study, liver) was 0 and the CHR_Mouse_Liver_1_AnyLesion ([6]; chronic mouse study, liver) was 6.

For CNc1cnn(-c2cccc(C(F)(F)F)c2)c(=O)c1Cl [row 222], the CHR_Mouse_Liver_2_PreneoplasticLesion ([1]; chronic mouse study, liver) is listed as 6, the ATG_PXRE_CIS [7] is listed as 4.62 and the CLZD_CYP1A1_24 [13] is listed as 5.028. The CLZD_CYP2B6_24 [9] was 4.975, the CLZD_CYP1A2_24 [11] was 4.939 and the CLZD_CYP3A4_24 [12] was 5.266. For the same molecule, the CHR_Mouse_Liver_3_NeoplasticLesion ([3]; chronic mouse study, liver) was 6 and the CHR_Mouse_Liver_1_AnyLesion ([6]; chronic mouse study, liver) was 6.
